≈ marks a conversion by molar mass, not a printed value. Like-named read-outs stand apart in the source and are kept apart here.
Experiments:
Type in all cases: cell-based
Enterococcus faecium = test: MIC, agar dilution, Enterococcus faecium; conditions: Enterococcus faecium; strain UC241; read-out: MIC
Protocol: (§1) Stock solutions of each test antibiotic compound were prepared to have a concentration of 2 mg. of the test compound per milliliter in sterile water of 0.1M ammonium acetate solution. The amount of each compound used was adjusted for base compound activity as calculated from the purity data for the selected batch of compound.
(§2) The dilution procedure described by Washington and Sutter [Manual of Clinical Microbiology, 3rd, Edit. (Lennett, E. H. et al, Eds.), pp. 453-458 (1980), American Society for Microbiology, Washington, D.C.] was modified so that serial concentrations of 128 to 0.0625 microgram/ml. in sterile water was obtained. Then 1.5 ml. aliquots of these test antibiotic dilution mixtures are added to 13.5 molten (50° C.) Mueller-Hinton agar. Each resulting mixture is poured into 15×100 mm, sterile Petri plates and allowed to dry at room temperature overnight.
(§3) Test bacterial cultures are maintained at -70° C. on glass beads. [See R. J. Yancey, Jr. et al, Amer. Jr. of Vet. Research, 48, No. 7, pp. 1050-1053, (1987)]. At least one bacteria-laden bead per culture is dropped into one ml. of brain heart infusion (BHI) broth for overnight culture at 37° C. in 5% V/V carbon dioxide in air atmosphere.
(§4) On the data of assay, 2 to 8 drops of the bacterial broth cultures are transferred to fresh BHI broth (1 ml.) and the mixture is incubated for 4 to 6 hours at 37° C. in a 5% V/V carbon dioxide in air atmosphere. The resulting cultures are then diluted to match a 0.5 MacFarland standard and further diluted 1:20 V/V with sterile saline solution.
(§5) A 0.001 ml. drop of the resulting mixture, containing approximately 10^3 to 10^4 colony forming units (CFU) of each test bacteria organism, is dispensed onto the surface of the test antibiotic compound test plates with a Steer's type replicator. The resulting innoculated plates are incubated 16 to 18 hours at 37° C. with a carbon dioxide atmosphere.
(§6) Stock solution of each test antibiotic compound were prepared to have a concentration of 2 mg. of the test compound per milliliter in sterile water of 0.1M ammonium acetate solution. The amount of each compound used was adjusted for base compound activity as calculated from the purity data for the selected batch of compound.
(§7) The dilution procedure described by Washington and Sutter [Manual of Clinical Microbiology, 3rd, Edit. (Lennett, E. H. et al, Eds.), pp. 453-458 (1980), American Society for Microbiology, Washington, D.C.] was modified so that serial concentrations of 128 to 0.0625 microgram/ml. in sterile water was obtained. Then 1.5 ml. aliquots of these test antibiotic dilution mixtures are added to 13.5 molten (50° C.) Mueller-Hinton agar. Each resulting mixture is poured into 15×100 mm. sterile Petri plates and allowed to dry at room temperature overnight.
(§8) The dilution procedure described by Washington and Sutter [Manual of Clinical Microbiology, 3rd, Edit. (Lennett, E. H. et al, Eds.), pp. 453-458 (1980), American Society for Microbiology. Washington, D.C.] was modified so that serial concentrations of 128 to 0.0625 microgram/ml. in sterile water was obtained. Then 1.5 ml. aliquots of these test antibiotic dilution mixtures are added to 13.5 molten (50° C.) Mueller-Hinton agar. Each resulting mixture is poured into 15×100 mm. sterile Petri plates and allowed to dry at room temperature overnight.
(§9) Test bacterial culture are maintained at -70° C. on glass beads. [See R. J. Yancey, Jr. et al, Amer. Jr. of Vet. Research, 48, No. 7, pp. 1050-1053, (1987)]. At least one bacteria-laden bead per culture is dropped into one ml. of brain heart infusion (BHI) broth for overnight culture at 37° C. in 5% V/V carbon dioxide in air atmosphere.
(§10) On the day of assay, 2 to 8 drops of the bacterial broth cultures are transferred to fresh BHI broth (1 ml.) and the mixture is incubated for 4 to 6 hours at 37° C. in a 5% V/V carbon dioxide in air atmosphere. […]

Pseudomonas aeruginosa = test: MIC, agar dilution, Pseudomonas aeruginosa; conditions: Pseudomonas aeruginosa, ATCC27853; strain ATCC 27853; read-out: MIC
Protocol: as §6, §2, §3, §4, §5, §1, §7, §8, §9, §10

Streptococcus bovis = test: MIC, agar dilution, Streptococcus bovis; conditions: Streptococcus equinus; strain UC6281; read-out: MIC
Protocol: as §6, §2, §3, §4, §5, §1, §7, §8, §9, §10

Salmonella typhimurium = test: MIC, agar dilution, Salmonella typhimurium; conditions: Salmonella enterica, read-out: MIC
Protocol: as §6, §2, §3, §4, §5, §1, §7, §8, §9, §10

[1] = test system: Bordetella bronchiseptica; test: MIC, agar dilution, Bordetella bronchiseptica; conditions: Bordetella bronchiseptica; strain UC6313; read-out: MIC
Protocol: as §6, §2, §3, §4, §5, §1, §7, §8, §9, §10

Staphylococcus aureus = test: MIC, agar dilution, Staphylococcus aureus; conditions: Staphylococcus aureus, read-out: MIC
Protocol: as §6, §2, §3, §4, §5, §1, §7, §8, §9, §10

Salmonella choleraesuis = test: MIC, agar dilution, Salmonella choleraesuis; conditions: Salmonella enterica, read-out: MIC
Protocol: as §6, §2, §3, §4, §5, §1, §7, §8, §9, §10

Pasteurella multocida = test: MIC, agar dilution, Pasteurella multocida; conditions: Pasteurella multocida; strain UC9581; read-out: MIC
Protocol: as §6, §2, §3, §4, §5, §1, §7, §8, §9, §10

Pasteurella hemolytica = test: MIC (minimum inhibitory concentration), agar dilution, Pasteurella hemolytica; conditions: Pasteurella, read-out: MIC
Protocol: as §6, §2, §3, §4, §5, §1, §7, §8, §9, §10

Enterococcus faecalis = test: MIC, agar dilution, Enterococcus faecalis; conditions: Enterococcus faecalis; strain UC694; read-out: MIC
Protocol: as §1, §2, §3, §4, §5, §6, §7, §8, §9, §10

Streptococcus suis = test: MIC, agar dilution, Streptococcus suis; conditions: Streptococcus suis; strain 650-2; read-out: MIC
Protocol: as §6, §2, §3, §4, §5, §1, §7, §8, §9, §10

Streptococcus agalactiae = test: MIC, agar dilution, Streptococcus agalactiae; conditions: Streptococcus agalactiae, read-out: MIC
Protocol: as §6, §2, §3, §4, §5, §1, §7, §8, §9, §10

Escherichia coli = test: MIC, agar dilution, Escherichia coli; conditions: Escherichia coli, read-out: MIC
Protocol: as §6, §2, §3, §4, §5, §1, §7, §8, §9, §10

[2] = test system: Streptococcus dysgalactiae; test: MIC, agar dilution, Streptococcus dysgalactiae; conditions: Streptococcus dysgalactiae; strain UC251; read-out: MIC
Protocol: as §6, §2, §3, §4, §5, §1, §7, §8, §9, §10

Micrococcus luteus = test: MIC, agar dilution, Micrococcus luteus; conditions: Micrococcus luteus; strain UC130; read-out: MIC
Protocol: as §6, §2, §3, §4, §5, §1, §7, §8, §9, §10

Streptococcus uberis = test: MIC, agar dilution, Streptococcus uberis; conditions: Streptococcus uberis, read-out: MIC
Protocol: as §6, §2, §3, §4, §5, §1, §7, §8, §9, §10

Corynebacterium pyogenes = test: MIC, agar dilution, Corynebacterium pyogenes; conditions: strain 213-2; read-out: MIC
Protocol: as §6, §2, §3, §4, §5, §1, §7, §8, §9, §10

[3] = TYPHIMURIUM / UC6162, strain UC6162
[4] = TYPHIMURIUM / UC6164, strain UC6164
[5] = CHOLERAESUIS / UC6073, strain UC6073
[6] = CHOLERAESUIS / UC6077, strain UC6077

SMILES	MIC (Enterococcus faecium) [µg/mL]	MIC (Pseudomonas aeruginosa) [µg/mL]	MIC (Streptococcus bovis) [µg/mL]	MIC (Salmonella typhimurium; [3]) [µg/mL]	MIC (Salmonella typhimurium; [4]) [µg/mL]	MIC [1] [µg/mL]	MIC (Staphylococcus aureus; strain UC6093) [µg/mL]	MIC (Staphylococcus aureus; strain UC6097) [µg/mL]	MIC (Staphylococcus aureus; strain UC9203) [µg/mL]	MIC (Salmonella choleraesuis; [5]) [µg/mL]	MIC (Salmonella choleraesuis; [6]) [µg/mL]	MIC (Pasteurella multocida) [µg/mL]	MIC (Pasteurella hemolytica; strain UC6531) [µg/mL]	MIC (Pasteurella hemolytica; strain UC6532) [µg/mL]	MIC (Pasteurella hemolytica; strain UC9582) [µg/mL]	MIC (Enterococcus faecalis) [µg/mL]	MIC (Streptococcus suis) [µg/mL]	MIC (Streptococcus agalactiae; strain UC6892) [µg/mL]	MIC (Escherichia coli; strain UC3784) [µg/mL]	MIC (Escherichia coli; strain UC6720) [µg/mL]	other results
CO/N=C(\C(=O)N[C@@H]1C(=O)N2C(C(=O)O)=C(CSSCc3ccccc3)CS[C@H]12)c1csc(N)n1 [Example 14]	> 32	> 32	≤ 0.06	16 (≈ 29 µM)	16 (≈ 29 µM)	> 32	1 (≈ 1.81 µM)	1 (≈ 1.81 µM)	1 (≈ 1.81 µM)	16 (≈ 29 µM)	32 (≈ 58 µM)	2 (≈ 3.63 µM)	0.5 (≈ 0.906 µM)	0.25 (≈ 0.453 µM)	2 (≈ 3.63 µM)	> 32	≤ 0.06	≤ 0.06	8 (≈ 14.5 µM)	16 (≈ 29 µM)	MIC (Escherichia coli; strain UC9670): 8 µg/mL (≈ 14.5 µM); MIC [2]: ≤ 0.06 µg/mL; MIC (Micrococcus luteus): ≤ 0.06 µg/mL; MIC (Streptococcus uberis; strain UC3946): ≤ 0.06 µg/mL; MIC (Streptococcus uberis; strain UC6159): 8 µg/mL (≈ 14.5 µM); MIC (Corynebacterium pyogenes): 0.25 µg/mL (≈ 0.453 µM)
CO/N=C(\C(=O)N[C@@H]1C(=O)N2C(C(=O)O)=C(CSSc3ccccc3)CS[C@H]12)c1csc(N)n1 [Example 15]	> 32	> 32	≤ 0.06	16 (≈ 29.8 µM)	8 (≈ 14.9 µM)	> 32	2 (≈ 3.72 µM)	2 (≈ 3.72 µM)	2 (≈ 3.72 µM)	32 (≈ 59.5 µM)	32 (≈ 59.5 µM)	≤ 0.06	0.13 (≈ 0.242 µM)	0.25 (≈ 0.465 µM)	0.25 (≈ 0.465 µM)	> 32	≤ 0.06	≤ 0.06	8 (≈ 14.9 µM)	8 (≈ 14.9 µM)	MIC (Streptococcus agalactiae; strain UC3947): ≤ 0.06 µg/mL; MIC (Escherichia coli; strain UC9670): 8 µg/mL (≈ 14.9 µM); MIC [2]: ≤ 0.06 µg/mL; MIC (Micrococcus luteus): ≤ 0.06 µg/mL; MIC (Streptococcus uberis; strain UC3946): ≤ 0.06 µg/mL; MIC (Streptococcus uberis; strain UC6159): 16 µg/mL (≈ 29.8 µM); MIC (Corynebacterium pyogenes): 4 µg/mL (≈ 7.44 µM)
CO/N=C(\C(=O)N[C@@H]1C(=O)N2C(C(=O)O)=C(CSSCc3ccco3)CS[C@H]12)c1csc(N)n1 [Example 16]	> 32	> 32	≤ 0.06	16 (≈ 29.5 µM)	8 (≈ 14.8 µM)	> 32	1 (≈ 1.85 µM)	2 (≈ 3.69 µM)	1 (≈ 1.85 µM)	16 (≈ 29.5 µM)	32 (≈ 59.1 µM)	1 (≈ 1.85 µM)	0.25 (≈ 0.462 µM)	0.13 (≈ 0.24 µM)	0.13 (≈ 0.24 µM)	> 32	≤ 0.06	≤ 0.06	4 (≈ 7.38 µM)	8 (≈ 14.8 µM)	MIC (Streptococcus agalactiae; strain UC3947): ≤ 0.06 µg/mL; MIC (Escherichia coli; strain UC9670): 4 µg/mL (≈ 7.38 µM); MIC [2]: ≤ 0.06 µg/mL; MIC (Micrococcus luteus): ≤ 0.06 µg/mL; MIC (Streptococcus uberis; strain UC3946): ≤ 0.06 µg/mL; MIC (Streptococcus uberis; strain UC6159): 4 µg/mL (≈ 7.38 µM); MIC (Corynebacterium pyogenes): 0.13 µg/mL (≈ 0.24 µM)
CO/N=C(\C(=O)N[C@@H]1C(=O)N2C(C(=O)O)=C(CSSc3ccc(Cl)cc3)CS[C@H]12)c1csc(N)n1 [Example 17]	> 32	> 32	≤ 0.06	4 (≈ 6.99 µM)	4 (≈ 6.99 µM)	> 32	4 (≈ 6.99 µM)	2 (≈ 3.5 µM)	2 (≈ 3.5 µM)	8 (≈ 14 µM)	8 (≈ 14 µM)	≤ 0.06	≤ 0.06	0.13 (≈ 0.227 µM)	0.13 (≈ 0.227 µM)	> 32	≤ 0.06	≤ 0.06	2 (≈ 3.5 µM)	4 (≈ 6.99 µM)	MIC (Streptococcus agalactiae; strain UC3947): ≤ 0.06 µg/mL; MIC (Escherichia coli; strain UC9670): 8 µg/mL (≈ 14 µM); MIC [2]: ≤ 0.06 µg/mL; MIC (Micrococcus luteus): ≤ 0.06 µg/mL; MIC (Streptococcus uberis; strain UC3946): ≤ 0.06 µg/mL; MIC (Streptococcus uberis; strain UC6159): 4 µg/mL (≈ 6.99 µM); MIC (Corynebacterium pyogenes): ≤ 0.06 µg/mL

From patent US5134137A, “Cephalosporin antibiotics” (The Upjohn Company, priority 1990, dated 1992)
